Measurements as given in the NIST ThermoML archive (doi:10.1021/je800463k).

Assay: mn = molality of the nth substance listed, in mol/kg
Conditions: 101 kPa, Liquid; for mass density: Pycnometric method; for electrical conductivity: Frequency=0.001 MHz, Alternating current cell with electrodes; for speed of sound: Frequency=2 MHz

O=[N+]([O-])[O-].O=[N+]([O-])[O-].[Mg+2] [magnesium nitrate] + CO
Conditions	electrical conductivity [S/m]	mass density [kg/m3]	speed of sound [m/s]	viscosity [mPa·s]
308.75 K, m1 = 0.4555	–	824.82	–	–
308.75 K, m1 = 1.004	–	877.82	–	–
308.85 K, m1 = 1.492	–	927.12	–	–
309.1 K, m1 = 0.0082	–	775.87	–	–
309.4 K, m1 = 0.1047	–	789.92	–	–
309.75 K, m1 = 0.0545	–	782.89	–	–
309.75 K, m1 = 0.881	–	863.28	–	–
309.9 K, m1 = 0.2776	–	806.88	–	–
309.95 K, m1 = 1.259	–	904.15	–	–
310.1 K, m1 = 0.782	–	861.14	–	–
310.2 K, m1 = 0.0667	–	784.14	–	–
310.3 K, m1 = 1.71	–	944.04	–	–
310.4 K, m1 = 0.4024	–	818.47	–	–
310.45 K, m1 = 0.6276	–	841.27	–	–
310.65 K, m1 = 0.4555	–	823.17	–	–
310.7 K, m1 = 1.004	–	876	–	–
311.55 K, m1 = 1.875	–	953.58	–	–
311.6 K, m1 = 0.0082	–	773.44	–	–
311.7 K, m1 = 0.0667	–	782.46	–	–
311.9 K, m1 = 0.881	–	861.58	–	–
311.9 K, m1 = 1.259	–	902.37	–	–
312 K, m1 = 0.1047	–	787.42	–	–
312 K, m1 = 1.492	–	924.32	–	–
312.1 K, m1 = 0.4024	–	816.76	–	–
312.2 K, m1 = 0.4555	–	821.41	–	–
312.25 K, m1 = 0.6276	–	839.48	–	–
312.3 K, m1 = 0.0545	–	780.41	–	–
312.45 K, m1 = 1.71	–	942.18	–	–
312.5 K, m1 = 0.2776	–	804.41	–	–
312.85 K, m1 = 0.782	–	858.54	–	–
313.15 K, m1 = 0.0082	0.1573	–	1059.8	0.4543
313.15 K, m1 = 0.0545	0.4382	–	1066.6	0.483
313.15 K, m1 = 0.0667	0.4799	–	1067.2	0.4662
313.15 K, m1 = 0.1047	0.6326	–	1072.3	0.5128
313.15 K, m1 = 0.2776	1.215	–	1090.3	0.5885
313.15 K, m1 = 0.4024	1.537	–	1099.9	0.6799
313.15 K, m1 = 0.4555	1.625	–	1105.5	0.7062
313.15 K, m1 = 0.6276	1.951	–	1123.8	0.8707
313.15 K, m1 = 0.782	2.183	–	1140.7	0.9902
313.15 K, m1 = 0.881	2.262	–	1147.3	0.9936
313.15 K, m1 = 0.9116	2.287	–	1150.2	1.038
313.15 K, m1 = 1.004	2.39	–	1164.5	1.124
313.15 K, m1 = 1.259	2.502	–	1183.5	1.536
313.15 K, m1 = 1.492	2.545	–	1210.2	1.837
313.15 K, m1 = 1.71	2.587	–	1231.4	2.169
313.15 K, m1 = 1.875	2.567	–	1240.4	2.45
313.3 K, m1 = 0.0667	–	780.84	–	–
313.65 K, m1 = 1.004	–	873.36	–	–
313.7 K, m1 = 1.875	–	951.61	–	–
313.85 K, m1 = 0.4024	–	815.07	–	–
313.95 K, m1 = 0.0545	–	778.79	–	–
314 K, m1 = 0.0082	–	771.07	–	–
314.25 K, m1 = 1.492	–	922.37	–	–
314.4 K, m1 = 0.1047	–	784.98	–	–
314.6 K, m1 = 1.71	–	940.19	–	–
314.7 K, m1 = 0.881	–	858.85	–	–
314.8 K, m1 = 0.4555	–	818.87	–	–
314.85 K, m1 = 1.259	–	899.51	–	–
314.9 K, m1 = 0.6276	–	836.88	–	–
315.1 K, m1 = 0.2776	–	801.88	–	–
315.45 K, m1 = 0.4024	–	813.41	–	–
315.65 K, m1 = 0.0667	–	778.45	–	–
315.65 K, m1 = 0.782	–	855.81	–	–
315.8 K, m1 = 1.875	–	949.71	–	–
315.95 K, m1 = 0.1047	–	783.38	–	–
316.35 K, m1 = 0.0545	–	776.41	–	–
316.5 K, m1 = 0.4555	–	817.2	–	–
316.6 K, m1 = 0.881	–	857.07	–	–
316.6 K, m1 = 1.004	–	870.6	–	–
316.65 K, m1 = 0.6276	–	835.18	–	–
316.75 K, m1 = 1.259	–	897.65	–	–
317.35 K, m1 = 0.2776	–	799.43	–	–
317.35 K, m1 = 1.492	–	919.48	–	–
317.5 K, m1 = 0.782	–	854.04	–	–
317.8 K, m1 = 1.875	–	947.68	–	–
317.85 K, m1 = 1.71	–	937.24	–	–
318.15 K, m1 = 0.0082	–	–	1044.1	–
318.15 K, m1 = 0.0545	–	–	1045.1	–
318.15 K, m1 = 0.0667	–	–	1051.1	–
318.15 K, m1 = 0.1047	–	–	1056.1	–
318.15 K, m1 = 0.2776	–	–	1074.8	–
318.15 K, m1 = 0.4024	–	–	1083.3	–
318.15 K, m1 = 0.4555	–	–	1089.9	–
318.15 K, m1 = 0.6276	–	–	1108	–
318.15 K, m1 = 0.782	–	–	1124.4	–
318.15 K, m1 = 0.881	–	–	1131.9	–
318.15 K, m1 = 0.9116	–	–	1134	–
318.15 K, m1 = 1.004	–	–	1148.2	–
318.15 K, m1 = 1.259	–	–	1167.6	–
318.15 K, m1 = 1.492	–	–	1193.9	–
318.15 K, m1 = 1.71	–	–	1216.4	–
318.15 K, m1 = 1.875	–	–	1225.2	–
319.3 K, m1 = 0.881	–	854.45	–	–
319.45 K, m1 = 1.004	–	867.87	–	–
319.55 K, m1 = 1.259	–	894.9	–	–
320.2 K, m1 = 1.492	–	916.67	–	–
320.25 K, m1 = 0.782	–	851.43	–	–
320.75 K, m1 = 1.875	–	944.75	–	–
320.9 K, m1 = 1.71	–	934.37	–	–
323.15 K, m1 = 0.0082	–	–	1027.3	–
323.15 K, m1 = 0.0545	–	–	1033.4	–
323.15 K, m1 = 0.0667	–	–	1035.4	–
323.15 K, m1 = 0.1047	–	–	1039.7	–
323.15 K, m1 = 0.2776	–	–	1058.3	–
323.15 K, m1 = 0.4024	–	–	1067.5	–
323.15 K, m1 = 0.4555	–	–	1076.2	–
323.15 K, m1 = 0.6276	–	–	1093.5	–
323.15 K, m1 = 0.782	–	–	1108.6	–
323.15 K, m1 = 0.881	–	–	1115.5	–
323.15 K, m1 = 0.9116	–	–	1119.3	–
323.15 K, m1 = 1.004	–	–	1133.8	–
323.15 K, m1 = 1.259	–	–	1151.8	–
323.15 K, m1 = 1.492	–	–	1177.5	–
323.15 K, m1 = 1.71	–	–	1199	–
323.15 K, m1 = 1.875	–	–	1209.5	–
